Test system: Botrytis cinerea
Test: Activity against the gray mold pathogen Botrytis cinerea in the microtiter test (Botrci)
Format: cell-based
Settings: single active, day 7 after inoculation
Protocol: The expected efficacies of active compound combinations were determined using Colby's formula (Colby, S. R. “Calculating synergistic and antagonistic responses of herbicide combinations”, Weeds, 15, 20-22, 1967) and compared with the observed efficacies.
E=x+y−x·y/100 • E expected efficacy, expressed in % of the untreated control, when using the mixture of the active compounds A and B at the concentrations a and b • x efficacy, expressed in % of the untreated control, when using the active compound A at the concentration a • y efficacy, expressed in % of the untreated control, when using the active compound B at the concentration b
The active compounds were formulated separately as a stock solution having a concentration of 10 000 ppm in DMSO.
The active compound epoxiconazole was used as a commercial formulation.
Use example No. 1—Activity against the gray mold pathogen Botrytis cinerea in the microtiter test (Botrci)
The stock solution is pipetted onto a microtiter plate (MTP) and diluted to the stated active compound concentration using a malt-based aqueous nutrient medium for fungi. An aqueous spore suspension of Botrytis cinerea was then added. The plates were placed in a water vapor-saturated chamber at temperatures of 18° C. Using an absorption photometer, the MTPs were measured at 405 nm on day 7 after the inoculation. The measured parameters were compared to the growth of the active compound-free control variant and the fungus- and active compound-free blank value to determine the relative growth in % of the pathogens in the individual active compounds.
The visually determined values for the percentage of infected leaf area were initially converted into a mean value and then converted into efficacies in % of the untreated control. An efficacy of 0 means the same degree of infection as in the untreated control, an efficacy of 100 means 0% infection. The expected efficacies for active compound combinations were determined using Colby's formula (Colby, S. R. (Calculating synergistic and antagonistic responses of herbicide combinations”, Weeds, 15, pp. 20-22, 1967) and compared to the observed efficacies.

Structure (SMILES)	Observed effect (%) (0.016 ppm)	Observed effect (%) (0.063 ppm)	Observed effect (%) (0.004 ppm)	Observed effect (%) (0.25 ppm)
Fc1ccc(C2(Cn3cncn3)OC2c2ccccc2Cl)cc1 (stereo not shown) [Epoxiconazole, epoxiconazole]	15%	48%	–	–
O=c1c2cc(F)ccc2nc(-n2cncn2)n1-c1ccc(Cl)cc1Cl [Fluquinconazole, fluquinconazole]	–	–	0%	0%

Reference: patent US20090099020A1, “Triazole-Based Fungicidal Mixtures” (BADF Aktiengesellschaft, priority 2005, published 2009)
